Results as given in patent US20200009211A1, “CURCUMIN-CONTAINING MEDICINAL PREPARATION” (SAN-EI GEN F.F.I., INC., priority 2017, published 2020).

Assay: Curcumin administration test (A) in HFD-challenged mice: plasma TCHO, CM, LDL (Test Example 11)
Assay type: in vivo, mice (C57BL/6)
Settings: HFD-challenged C57BL/6 mice, ad libitum drinking of aqueous liquid for 12 weeks
Protocol: In this test, total cholesterol (TCHO), chylomicron (CM), and LDL cholesterol (LDL) were measured. […] After the feeding period, blood was sampled and centrifuged at […] at 4° C. for 15 minutes to obtain plasma. The plasma was measured by a Fuji Dri-Chem 4000V biochemical automatic analyzer (Fujifilm, Tokyo, Japan).

With `CC(C)(Oc1ccc(CCNC(=O)c2ccc(Cl)cc2)cc1)C(=O)O` [Bezafibrate] the “CM (chylomicron) in plasma” value was 0.53 mg/dL, the “LDL (LDL cholesterol) in plasma” value was 17.9 mg/dL and the “TCHO (total cholesterol) in plasma” value was 125.0 mg/dL.
